One assay has as its system monoclonal antibody D-1. The experiment in a line: Inhibition by synthetic peptides of the neutralization activity of D-1. The class given is cell-based, human. The following applies: D-1 and influenza A virus incubated with synthetic peptide.
The conditions of assay [1]: in vivo; for eliciting of antibody (antibody titer of rabbit immune serum against the peptide): sc.

Regarding NIPSRISIYWTIVKPGD [peptide 2], the neutralization inhibition rate entry in the assay with monoclonal antibody D-1 is reported as “about 20%”. Moreover, the “eliciting of antibody (antibody titer of rabbit immune serum against the peptide)” value in assay [1] is recorded as “could elicit the antibody in rabbit”.

For TMPNNEKFDKLYIWGVHHPGT [peptide 1], the neutralization inhibition rate entry with monoclonal antibody D-1 is “about 50%”. The “eliciting of antibody (antibody titer of rabbit immune serum against the peptide)” value in assay [1] was “could elicit the antibody in rabbit”. Further, in assay [1] (rabbit), the antigenicity result is “high antigenicity compared with the lower region peptide”.
